Results from patent US20100137313A1 (ASTRAZENECA AB, priority 2008, published 2010).

Target: S. pneumoniae Topoisomerase IV ATPase (ParE) (Streptococcus pneumoniae serotype 4, UniProt Q59961)
Assay: S. pneumoniae Topoisomerase IV ATPase inhibition
Type: biochemical
Settings: values marked * are an average of two or more data points, read-out: % Inh (13 μM) of S. pneumoniae Topoisomerase IV ATPase
Protocol: S. pneumoniae Topoisomerase IV ATPase Inhibition Activity: Compounds may be tested for inhibition of S. pneumoniae ParE ATPase activity using an ammonium molybdate/malachite green-based phosphate detection assay (Lanzetta, P. A., L. J. Alvarez, P. S. Reinach, and O. A. Candia, 1979, 100: 95-97). Assays are performed in multiwell plates in 30 μl reactions containing: 20 mM Tris buffer pH 8.0, 50 mM ammonium acetate, 8.0 mM magnesium chloride, 0.5 mM ethylenediaminetetraacetic acid, 5% glycerol, 5 mM 1,4-Dithio-DL-threitol, 0.005% Brij-35, 5 μg/ml sheared salmon sperm DNA, 1.25 nM S. pneumoniae ParE, 160 μM ATP, and test compound in dimethylsulfoxide. Reactions are quenched with 30 μl of ammonium molybdate/malachite green detection reagent containing 1.2 mM malachite green hydrochloride, 8.5 mM ammonium molybdate tetrahydrate, and 1 M hydrochloric acid. Plates are read in an absorbance plate reader at 650 nm and percent inhibition values are calculated using dimethylsulfoxide (2%)-containing reactions as 0% inhibition and EDTA-containing ([…]) reactions as 100% inhibition controls. An IC50 measurement of compound potency for each compound can be determined from reactions performed in the presence of 10 different compound concentrations.
Many of the compounds of the invention were tested in an assay substantially similar to the assays described above for measuring the inhibition of E.coli GyrB ATPase, E. coli Topoisomerase IV ATPase, S. aureus GyrB ATPase, and S. pneumoniae Topoisomerase IV ATPase, and had IC50 values of <200 μM in one or more assays.

Sequence of S. pneumoniae Topoisomerase IV ATPase (ParE) (Q59961 whole entry): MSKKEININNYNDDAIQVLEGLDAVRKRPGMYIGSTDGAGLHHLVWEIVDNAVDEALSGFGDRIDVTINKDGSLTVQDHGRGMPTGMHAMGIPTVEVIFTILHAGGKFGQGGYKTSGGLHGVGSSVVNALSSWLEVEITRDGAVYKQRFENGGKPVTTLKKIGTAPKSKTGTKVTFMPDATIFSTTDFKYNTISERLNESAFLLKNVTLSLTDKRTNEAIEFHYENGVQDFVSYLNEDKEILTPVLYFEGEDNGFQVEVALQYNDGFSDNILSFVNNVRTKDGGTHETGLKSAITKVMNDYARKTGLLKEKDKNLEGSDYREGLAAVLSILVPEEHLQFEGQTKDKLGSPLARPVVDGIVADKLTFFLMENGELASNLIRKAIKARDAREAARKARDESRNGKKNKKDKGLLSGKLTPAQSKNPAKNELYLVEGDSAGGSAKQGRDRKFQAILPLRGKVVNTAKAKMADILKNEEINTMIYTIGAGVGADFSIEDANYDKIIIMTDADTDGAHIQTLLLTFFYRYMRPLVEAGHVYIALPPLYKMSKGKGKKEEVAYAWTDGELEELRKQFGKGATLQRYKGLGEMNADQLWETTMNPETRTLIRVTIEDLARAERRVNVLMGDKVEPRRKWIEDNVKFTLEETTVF

| Compound | inhibition at 13 µM |
| --- | --- |
| Fc1ccc(Nc2ncc(-c3cncnc3)c(N3CCC3)n2)cc1Cl [Example 67, 4-(azetidin-1-yl)-N-(3-chloro-4-fluorophenyl)-5-pyrimidin-5-ylpyrimidin-2-amine] | 53.4% |
| O[C@H]1CC[C@H](Nc2nc(Nc3ccc(F)c(Cl)c3)ncc2-c2cncnc2)CC1 [Example 68, trans-4-[[2-[(3-chloro-4-fluorophenyl)amino]-5-pyrimidin-5-ylpyrimidin-4-yl]amino]cyclohexan-1-ol] | 72.9% |
| CC(=O)NC1CCN(c2nc(Nc3ccc(F)c(Cl)c3)ncc2-c2cncnc2)CC1 [Example 69, N-[1-[2-[(3-chloro-4-fluorophenyl)amino]-5-pyrimidin-5-ylpyrimidin-4-yl]piperidin-4-yl]acetamide] | 77% |
| Cc1cc(C(F)(F)F)nn1-c1nc(Nc2ccc(F)c(Cl)c2)ncc1-c1cncnc1 [Example 70, N-(3-chloro-4-fluorophenyl)-4-[5-methyl-3-(trifluoromethyl)-1H-pyrazol-1-yl]-5,5′-bipyrimidin-2-amine] | 86.6% |
| Fc1ccc(Nc2ncc(-c3cncnc3)c(-n3ccc(C(F)(F)F)n3)n2)cc1Cl [Example 71, N-(3-chloro-4-fluorophenyl)-4-[3-(trifluoromethyl)-1H-pyrazol-1-yl]-5,5′-bipyrimidin-2-amine] | 66.7% |
| Fc1ccc(Nc2ncc(-c3cncnc3)c(-n3cnc(Cl)c3Cl)n2)cc1Cl [Example 72, N-(3-chloro-4-fluorophenyl)-4-(4,5-dichloro-1H-imidazol-1-yl)-5,5′-bipyrimidin-2-amine] | 52.6% |
| Fc1ccc(Nc2ncc(-c3cncnc3)c(-n3cccc3)n2)cc1Cl [Example 73, N-(3-chloro-4-fluorophenyl)-4-(1H-pyrrol-1-yl)-5,5′-bipyrimidin-2-amine] | 89.6% |
| CC(C)(C)OC(=O)NCCCNc1nc(Nc2ccc(F)c(Cl)c2)ncc1-c1cncnc1 [Example 74, tert-butyl 3-(2-(3-chloro-4-fluorophenylamino)-5,5′-bipyrimidin-4-ylamino)propylcar-bamate] | 103% |
| COCCCNc1nc(Nc2ccc(F)c(Cl)c2)ncc1-c1cncnc1 [Example 75, N^2-(3-chloro-4-fluorophenyl)-N^4-(3-methoxypropyl)-5,5′-bipyrimidin-2,4-diamine] | 97.6% |
| Fc1ccc(Nc2ncc(-c3cncnc3)c(N3CCOCC3)n2)cc1Cl [Example 76, N-(3-chloro-4-fluorophenyl)-4-morpholin-5,5′-bipyrimidin-2-amine] | 79.3% |
| COc1ncc(-c2cnc(Nc3ccc(F)c(Cl)c3)nc2N2CCOCC2)cn1 [Example 77, N-(3-chloro-4-fluorophenyl)-2′-methoxy-4-morpholin-5,5′-bipyrimidin-2-amine] | 83% |
| COCCCNc1nc(Nc2ccc(F)c(Cl)c2)ncc1-c1cnc(OC)nc1 [Example 78, N^2-(3-chloro-4-fluorophenyl)-2′-methoxy-N^4-(3-methoxypropyl)-5,5′-bipyrimidine-2,4-diamine] | 80.9% |
| CN(C)CCCNc1nc(Nc2ccc(F)c(Cl)c2)ncc1-c1cncc(-c2noc(=O)[nH]2)c1 [Example 81, Sodium 3-(5-(2-(3-chloro-4-fluorophenylamino)-4-(3-(dimethylamino)propylamino)pyrimidin-5-yl)pyridin-3-yl)-5-oxo-1,2,4-oxadiazol-4-ide] | 72.6% |
| Cc1cc(C)n(-c2nc(Nc3ccc(F)c(Cl)c3)ncc2-c2cncnc2)n1 [Example 82, N-(3-chloro-4-fluorophenyl)-4-(3,5-dimethyl-1H-pyrazol-1-yl)-5,5′-bipyrimidin-2-amine] | 80.1% |
| Fc1ccc(Nc2ncc(-c3cncnc3)c(-n3cnc(C(F)(F)F)c3)n2)cc1Cl [Example 84, N-(3-chloro-4-fluorophenyl)-4-[4-(trifluoromethyl)-1H-imidazol-1-yl]-5,5′-bipyrimidin-2-amine] | 79.6% |
| Cc1nccn1-c1nc(Nc2ccc(F)c(Cl)c2)ncc1-c1cncnc1 [Example 85, N-(3-chloro-4-fluorophenyl)-4-(2-methyl-1H-imidazol-1-yl)-5,5′-bipyrimidin-2-amine] | 66.8% |
| Fc1ccc(Nc2ncc(-c3cncnc3)c(-n3nccn3)n2)cc1Cl [Example 86, N-(3-chloro-4-fluorophenyl)-4-(2H-1,2,3-triazol-2-yl)-5,5′-bipyrimidin-2-amine] | 91.1% |

| Compound | inhibition at 13 µM |
| --- | --- |
| Fc1ccc(Nc2ncc(-c3cncnc3)c(-n3nnc4ncccc43)n2)cc1Cl [Example 88, N-(3-chloro-4-fluorophenyl)-4-(1H-[1,2,3]triazolo[4,5-b]pyridin-1-yl)-5,5′-bipyrimidin-2-amine] | 102% |
| Fc1ccc(Nc2ncc(-c3cncnc3)c(-n3nnc4ccccc43)n2)cc1Cl [Example 89, 4-(1H-benzotriazol-1-yl)-N-(3-chloro-4-fluorophenyl)-5,5′-bipyrimidin-2-amine] | 85.3% |
| CCCNc1nc(Nc2ccc(F)c(Cl)c2)ncc1-c1cncc(C(=O)OCC)c1 [Example 90, 5-[2-(3-Chloro-4-fluoro-phenylamino)-4-propylamino-pyrimidin-5-yl]-nicotinic acid ethyl ester] | 24.6% |
| CCOC(=O)c1cncc(-c2cnc(Nc3ccc(F)c(Cl)c3)nc2NCCCN2CCCC2=O)c1 [Example 91, 5-{2-(3-Chloro-4-fluoro-phenylamino)-4-[3-(2-oxo-pyrrolidin-1-yl)-propylamino]-pyrimidin-5-yl}-nicotinic acid ethyl ester] | 83.1% |
| CCOC(=O)c1cncc(-c2cnc(Nc3ccc(F)c(Cl)c3)nc2NC2CCN(C(C)=O)CC2)c1 [Example 92, 5-[4-(1-Acetyl-piperidin-4-ylamino)-2-(3-chloro-4-fluoro-phenylamino)-pyrimidin-5-yl]-nicotinic acid ethyl ester] | 3.56% |
| CCOC(=O)c1cncc(-c2cnc(Nc3ccc(F)c(Cl)c3)nc2NCCN(C)C)c1 [Example 93] | 79.6% |
| CCOC(=O)c1cncc(-c2cnc(Nc3ccc(F)c(Cl)c3)nc2NCCNC(C)=O)c1 [Example 94, 5-[4-(2-Acetylamino-ethylamino)-2-(3-chloro-4-fluoro-phenylamino)-pyrimidin-5-yl]-nicotinic acid ethyl ester] | 77.5% |
| CCOC(=O)c1cncc(-c2cnc(Nc3ccc(F)c(Cl)c3)nc2NCc2ccccn2)c1 [Example 95, 5-{2-(3-Chloro-4-fluoro-phenylamino)-4-[(pyridin-2-ylmethyl)-amino]-pyrimidin-5-yl}-nicotinic acid ethyl ester] | -0.48% |
| CCOC(=O)c1cncc(-c2cnc(Nc3ccc(F)c(Cl)c3)nc2NCc2cccnc2)c1 [Example 96, 5-{2-(3-Chloro-4-fluoro-phenylamino)-4-[(pyridin-3-ylmethyl)-amino]-pyrimidin-5-yl}-nicotinic acid ethyl ester] | 62.2% |
| CCOC(=O)c1cncc(-c2cnc(Nc3ccc(F)c(Cl)c3)nc2NCc2ccncc2)c1 [Example 97, 5-{2-(3-Chloro-4-fluoro-phenylamino)-4-[(pyridin-4-ylmethyl)-amino]-pyrimidin-5-yl}-nicotinic acid ethyl ester] | 75.9% |
| CCOC(=O)c1cncc(-c2cnc(Nc3ccc(F)c(Cl)c3)nc2NCCNC(=O)OC(C)(C)C)c1 [Example 98, 5-[4-(2-tert-Butoxycarbonylamino-ethylamino)-2-(3-chloro-4-fluoro-phenylamino)-pyrimidin-5-yl]-nicotinic acid ethyl ester] | 59.4% |
| CCOC(=O)c1cncc(-c2cnc(Nc3ccc(F)c(Cl)c3)nc2NCCC(N)=O)c1 [Example 99, 5-[4-(2-Carbamoyl-ethylamino)-2-(3-chloro-4-fluoro-phenylamino)-pyrimidin-5-yl]-nicotinic acid ethyl ester] | 82% |
| CCOC(=O)c1cncc(-c2cnc(Nc3ccc(F)c(Cl)c3)nc2NCCN2CCOCC2)c1 [Example 100, 5-[2-(3-Chloro-4-fluoro-phenylamino)-4-(2-morpholin-4-yl-ethylamino)-pyrimidin-5-yl]-nicotinic acid ethyl ester] | 74.2% |
| CCOC(=O)c1cncc(-c2cnc(Nc3ccc(F)c(Cl)c3)nc2NCCc2ccccn2)c1 [Example 101, 5-[2-(3-Chloro-4-fluoro-phenylamino)-4-(2-pyridin-2-yl-ethylamino)-pyrimidin-5-yl]-nicotinic acid ethyl ester] | 8.69% |
| CCOC(=O)c1cncc(-c2cnc(Nc3ccc(F)c(Cl)c3)nc2NCCc2cccnc2)c1 [Example 102, 5-[2-(3-Chloro-4-fluoro-phenylamino)-4-(2-pyridin-3-yl-ethylamino)-pyrimidin-5-yl]-nicotinic acid ethyl ester] | 73.5% |
| CCOC(=O)c1cncc(-c2cnc(Nc3ccc(F)c(Cl)c3)nc2NCCc2ccncc2)c1 [Example 103, 5-[2-(3-Chloro-4-fluoro-phenylamino)-4-(2-pyridin-4-yl-ethylamino)-pyrimidin-5-yl]-nicotinic acid ethyl ester] | 79.5% |
